Experimental data reported in the kinase profiling compilation of Christmann-Franck et al. (2016).
One block for each compound: values may come before it.

Assays:
Experiment in all cases: radiometric filter-binding kinase assay
STK33 (human) = STK33 (human) (UniProt Q9BYT3)
PRKCG (human) = PRKCG (human) (UniProt P05129)
PAK6 (human) = PAK6 (human) (UniProt Q9NQU5)
ULK2 (human) = ULK2 (human) (UniProt Q8IYT8)
WNK1 (human) = WNK1 (human) (UniProt Q9H4A3)
TSSK1B (human) = TSSK1B (human) (UniProt Q9BXA7)
DDR2 (human) = DDR2 (human) (UniProt Q16832)
TTBK2 (human) = TTBK2 (human) (UniProt Q6IQ55)
PDGFRA (human) = PDGFRA (human) (UniProt P16234)
EIF2AK3 (human) = EIF2AK3 (human) (UniProt Q9NZJ5)
Chain of EIF2AK3 (human) (Q9NZJ5 whole entry, looked up): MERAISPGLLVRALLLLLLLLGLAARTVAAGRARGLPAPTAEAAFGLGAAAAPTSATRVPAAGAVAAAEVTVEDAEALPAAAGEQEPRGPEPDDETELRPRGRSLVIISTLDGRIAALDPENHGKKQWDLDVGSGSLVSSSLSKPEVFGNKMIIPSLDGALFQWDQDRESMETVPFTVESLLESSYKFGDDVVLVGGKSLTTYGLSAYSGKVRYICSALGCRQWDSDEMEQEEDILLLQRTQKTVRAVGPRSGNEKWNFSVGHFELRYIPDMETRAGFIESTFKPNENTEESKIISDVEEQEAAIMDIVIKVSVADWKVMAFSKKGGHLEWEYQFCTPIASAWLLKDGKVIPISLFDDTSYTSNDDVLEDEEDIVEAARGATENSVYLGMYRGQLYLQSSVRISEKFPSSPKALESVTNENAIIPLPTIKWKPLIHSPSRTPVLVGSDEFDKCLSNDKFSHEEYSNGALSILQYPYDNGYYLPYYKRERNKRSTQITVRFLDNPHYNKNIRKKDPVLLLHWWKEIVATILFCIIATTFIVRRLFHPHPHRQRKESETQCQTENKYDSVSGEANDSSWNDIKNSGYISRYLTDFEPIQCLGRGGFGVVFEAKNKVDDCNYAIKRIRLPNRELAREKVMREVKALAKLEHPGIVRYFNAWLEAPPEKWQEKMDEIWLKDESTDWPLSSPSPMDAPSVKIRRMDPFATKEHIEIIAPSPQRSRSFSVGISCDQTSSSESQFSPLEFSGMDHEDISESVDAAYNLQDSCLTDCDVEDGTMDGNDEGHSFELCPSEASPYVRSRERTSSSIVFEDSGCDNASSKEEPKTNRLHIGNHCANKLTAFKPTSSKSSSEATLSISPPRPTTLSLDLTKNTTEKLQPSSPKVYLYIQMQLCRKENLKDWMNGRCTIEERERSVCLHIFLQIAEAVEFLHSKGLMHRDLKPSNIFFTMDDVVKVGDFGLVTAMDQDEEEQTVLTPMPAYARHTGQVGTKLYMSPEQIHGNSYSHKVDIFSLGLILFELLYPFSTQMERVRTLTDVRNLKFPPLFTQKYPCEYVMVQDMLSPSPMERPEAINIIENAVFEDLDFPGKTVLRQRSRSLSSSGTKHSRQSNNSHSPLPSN

ULK1 (human) = ULK1 (human) (UniProt O75385)
TTBK1 (human) = TTBK1 (human) (UniProt Q5TCY1)
ABL1 (human) = ABL1 (human) (UniProt P00519)
SIK2 (human) = SIK2 (human) (UniProt Q9H0K1)
TLK1 (human) = TLK1 (human) (UniProt Q9UKI8)
MAP4K5 (human) = MAP4K5 (human) (UniProt Q9Y4K4)
Chain of MAP4K5 (human) (Q9Y4K4 whole entry, looked up): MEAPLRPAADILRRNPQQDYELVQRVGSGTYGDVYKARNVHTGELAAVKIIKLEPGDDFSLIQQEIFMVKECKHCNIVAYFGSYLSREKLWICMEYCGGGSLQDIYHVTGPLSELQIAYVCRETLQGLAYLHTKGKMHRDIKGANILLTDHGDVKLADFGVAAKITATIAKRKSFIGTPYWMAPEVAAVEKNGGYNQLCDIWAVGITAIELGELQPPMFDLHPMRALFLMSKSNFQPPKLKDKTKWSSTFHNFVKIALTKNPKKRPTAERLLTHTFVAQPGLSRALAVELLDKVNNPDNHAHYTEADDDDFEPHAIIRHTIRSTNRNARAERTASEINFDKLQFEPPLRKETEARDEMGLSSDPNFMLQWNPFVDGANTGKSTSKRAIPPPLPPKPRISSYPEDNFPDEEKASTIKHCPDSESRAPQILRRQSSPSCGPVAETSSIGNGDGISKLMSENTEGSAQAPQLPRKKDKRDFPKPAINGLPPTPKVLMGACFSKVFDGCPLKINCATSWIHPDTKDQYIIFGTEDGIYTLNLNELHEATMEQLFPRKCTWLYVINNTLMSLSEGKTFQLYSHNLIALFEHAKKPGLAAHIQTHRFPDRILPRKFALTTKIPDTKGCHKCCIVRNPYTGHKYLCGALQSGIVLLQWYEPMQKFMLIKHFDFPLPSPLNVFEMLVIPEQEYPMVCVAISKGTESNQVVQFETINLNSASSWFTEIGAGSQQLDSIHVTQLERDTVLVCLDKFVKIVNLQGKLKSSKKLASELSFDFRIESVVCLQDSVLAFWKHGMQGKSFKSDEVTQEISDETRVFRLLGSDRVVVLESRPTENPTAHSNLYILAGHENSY

MAPK11 (human) = MAPK11 (human) (UniProt Q15759)
[1] = biological target: PRKAA1 PRKAB2 PRKAG1 (human) (UniProt O43741+Q13131+P54619)
Chain of PRKAA1 PRKAB2 PRKAG1 (human) (O43741 whole entry, looked up): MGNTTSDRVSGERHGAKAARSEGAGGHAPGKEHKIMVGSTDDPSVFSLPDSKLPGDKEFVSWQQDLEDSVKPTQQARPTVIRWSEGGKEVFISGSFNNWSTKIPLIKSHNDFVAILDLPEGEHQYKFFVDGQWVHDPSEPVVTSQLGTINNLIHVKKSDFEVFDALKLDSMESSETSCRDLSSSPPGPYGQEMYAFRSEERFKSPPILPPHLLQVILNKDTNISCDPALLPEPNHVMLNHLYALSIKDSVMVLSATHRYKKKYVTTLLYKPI
Chain of PRKAA1 PRKAB2 PRKAG1 (human) (P54619 whole entry, looked up): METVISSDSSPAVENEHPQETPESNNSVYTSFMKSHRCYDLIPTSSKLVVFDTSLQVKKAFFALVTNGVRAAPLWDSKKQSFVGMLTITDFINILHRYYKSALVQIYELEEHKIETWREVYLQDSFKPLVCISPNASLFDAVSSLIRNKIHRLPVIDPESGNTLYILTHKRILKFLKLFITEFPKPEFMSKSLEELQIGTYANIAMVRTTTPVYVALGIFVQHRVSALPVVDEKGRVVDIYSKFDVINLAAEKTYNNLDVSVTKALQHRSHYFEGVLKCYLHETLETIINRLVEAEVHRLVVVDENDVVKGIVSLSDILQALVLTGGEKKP
Chain of PRKAA1 PRKAB2 PRKAG1 (human) (Q13131 whole entry, looked up): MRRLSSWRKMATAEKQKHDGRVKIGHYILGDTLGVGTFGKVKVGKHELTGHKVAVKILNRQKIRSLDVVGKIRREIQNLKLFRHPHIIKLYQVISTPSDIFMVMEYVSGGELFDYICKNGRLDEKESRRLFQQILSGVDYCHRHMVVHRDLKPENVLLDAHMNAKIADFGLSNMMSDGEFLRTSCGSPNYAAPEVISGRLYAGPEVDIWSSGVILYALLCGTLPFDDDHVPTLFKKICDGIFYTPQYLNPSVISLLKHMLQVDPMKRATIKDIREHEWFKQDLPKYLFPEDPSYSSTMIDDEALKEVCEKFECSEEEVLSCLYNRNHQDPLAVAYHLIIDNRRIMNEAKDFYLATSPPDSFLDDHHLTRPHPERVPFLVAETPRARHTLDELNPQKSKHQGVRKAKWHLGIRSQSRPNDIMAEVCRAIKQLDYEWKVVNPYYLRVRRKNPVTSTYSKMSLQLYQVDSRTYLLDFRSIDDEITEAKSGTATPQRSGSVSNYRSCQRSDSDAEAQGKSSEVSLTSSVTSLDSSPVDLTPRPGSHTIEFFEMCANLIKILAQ

TESK1 (human) = TESK1 (human) (UniProt Q15569)
MAPK7 (human) = MAPK7 (human) (UniProt Q13164)
[2] = system: OXSR1 (human), O95747 [T185E]
[3] = system: TGFBR1 (human), P36897 [T204D]
STK16 (human) = STK16 (human) (UniProt O75716)
IRAK1 (human) = IRAK1 (human) (UniProt P51617)
STK24 (human) = STK24 (human) (UniProt Q9Y6E0)
MAP4K3 (human) = MAP4K3 (human) (UniProt Q8IVH8)
SIK3 (human) = SIK3 (human) (UniProt Q9Y2K2)
Chain of SIK3 (human) (Q9Y2K2 whole entry, looked up): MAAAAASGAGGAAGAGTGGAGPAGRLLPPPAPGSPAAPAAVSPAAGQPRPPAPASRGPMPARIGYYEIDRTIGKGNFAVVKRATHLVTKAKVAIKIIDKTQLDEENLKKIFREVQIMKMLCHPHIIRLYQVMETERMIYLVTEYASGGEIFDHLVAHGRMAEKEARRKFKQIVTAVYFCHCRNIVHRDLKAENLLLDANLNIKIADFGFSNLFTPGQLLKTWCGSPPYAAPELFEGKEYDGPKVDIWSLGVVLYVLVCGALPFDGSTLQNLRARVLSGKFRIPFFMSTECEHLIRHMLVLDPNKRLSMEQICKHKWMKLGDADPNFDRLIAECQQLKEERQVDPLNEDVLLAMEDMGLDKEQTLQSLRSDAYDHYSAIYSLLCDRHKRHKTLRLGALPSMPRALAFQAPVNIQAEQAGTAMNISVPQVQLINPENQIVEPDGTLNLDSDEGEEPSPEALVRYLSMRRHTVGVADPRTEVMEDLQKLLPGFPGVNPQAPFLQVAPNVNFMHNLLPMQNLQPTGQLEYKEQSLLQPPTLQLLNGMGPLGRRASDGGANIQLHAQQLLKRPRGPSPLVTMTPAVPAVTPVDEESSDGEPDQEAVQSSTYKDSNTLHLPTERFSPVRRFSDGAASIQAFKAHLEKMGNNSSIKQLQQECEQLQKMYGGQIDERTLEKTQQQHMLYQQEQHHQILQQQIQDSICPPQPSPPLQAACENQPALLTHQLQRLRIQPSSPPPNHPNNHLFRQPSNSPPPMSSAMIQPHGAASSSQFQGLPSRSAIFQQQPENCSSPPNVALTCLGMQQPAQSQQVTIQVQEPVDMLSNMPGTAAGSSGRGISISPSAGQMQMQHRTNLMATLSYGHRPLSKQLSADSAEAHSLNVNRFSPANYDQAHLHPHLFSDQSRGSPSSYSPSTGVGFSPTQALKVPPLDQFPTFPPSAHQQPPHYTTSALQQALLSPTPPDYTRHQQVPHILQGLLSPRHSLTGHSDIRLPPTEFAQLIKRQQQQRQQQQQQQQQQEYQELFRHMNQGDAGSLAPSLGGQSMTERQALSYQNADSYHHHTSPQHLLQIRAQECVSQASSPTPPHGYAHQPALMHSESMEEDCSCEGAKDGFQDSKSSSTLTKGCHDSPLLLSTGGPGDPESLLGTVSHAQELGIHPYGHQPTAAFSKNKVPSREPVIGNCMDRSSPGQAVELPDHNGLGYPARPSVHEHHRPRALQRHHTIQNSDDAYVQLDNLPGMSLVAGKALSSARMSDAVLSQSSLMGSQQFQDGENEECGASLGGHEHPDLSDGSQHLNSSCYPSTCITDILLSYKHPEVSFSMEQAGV

CSNK1G2 (human) = CSNK1G2 (human) (UniProt P78368)
PTK6 (human) = PTK6 (human) (UniProt Q13882)
ZAP70 (human) = ZAP70 (human) (UniProt P43403)
Chain of ZAP70 (human) (P43403 whole entry, looked up): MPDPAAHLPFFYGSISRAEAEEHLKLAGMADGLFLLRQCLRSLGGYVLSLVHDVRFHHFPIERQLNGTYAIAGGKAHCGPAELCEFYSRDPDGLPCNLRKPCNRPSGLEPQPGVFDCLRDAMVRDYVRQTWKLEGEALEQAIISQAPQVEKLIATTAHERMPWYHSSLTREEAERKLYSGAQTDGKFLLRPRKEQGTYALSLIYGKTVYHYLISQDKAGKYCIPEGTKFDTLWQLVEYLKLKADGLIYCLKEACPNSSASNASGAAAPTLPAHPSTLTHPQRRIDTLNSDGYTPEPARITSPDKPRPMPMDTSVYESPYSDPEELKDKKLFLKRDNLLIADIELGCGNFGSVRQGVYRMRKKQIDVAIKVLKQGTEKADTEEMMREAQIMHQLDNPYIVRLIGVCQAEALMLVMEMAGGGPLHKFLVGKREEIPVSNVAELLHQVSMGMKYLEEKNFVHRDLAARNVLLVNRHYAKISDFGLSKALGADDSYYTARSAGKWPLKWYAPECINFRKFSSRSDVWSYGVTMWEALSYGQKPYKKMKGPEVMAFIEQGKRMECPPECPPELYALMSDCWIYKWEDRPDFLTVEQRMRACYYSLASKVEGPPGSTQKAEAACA

CDK9 CCNT1 (human) = CDK9 CCNT1 (human) (UniProt P50750+O60563); conditions: compound 0.1 µM

residual activity (STK33 (human); compound 1.0 µM): 128%
residual activity (STK33 (human); compound 10.0 µM): 119%
residual activity (PRKCG (human); compound 1.0 µM): 108%
residual activity (PRKCG (human); compound 10.0 µM): 112%
residual activity (PAK6 (human); compound 1.0 µM): 102%
residual activity (PAK6 (human); compound 10.0 µM): 104%
residual activity (ULK2 (human); compound 1.0 µM): 106%
residual activity (ULK2 (human); compound 10.0 µM): 105%
residual activity (WNK1 (human); compound 1.0 µM): 104%
residual activity (WNK1 (human); compound 10.0 µM): 106%
residual activity (TSSK1B (human); compound 1.0 µM): 89%
residual activity (TSSK1B (human); compound 10.0 µM): 100%
residual activity (DDR2 (human); compound 1.0 µM): 102%
residual activity (DDR2 (human); compound 10.0 µM): 102%
residual activity (TTBK2 (human); compound 10.0 µM): 101%
residual activity (PDGFRA (human); compound 1.0 µM): 85%
residual activity (PDGFRA (human); compound 10.0 µM): 82%
residual activity (EIF2AK3 (human); compound 1.0 µM): 86%
residual activity (EIF2AK3 (human); compound 10.0 µM): 101%
residual activity (ULK1 (human); compound 1.0 µM): 104%
residual activity (ULK1 (human); compound 10.0 µM): 103%
residual activity (TTBK1 (human); compound 1.0 µM): 106%
residual activity (TTBK1 (human); compound 10.0 µM): 118%
residual activity (ABL1 (human); compound 1.0 µM): 96%
residual activity (ABL1 (human); compound 10.0 µM): 101%
residual activity (SIK2 (human); compound 1.0 µM): 83%
residual activity (SIK2 (human); compound 10.0 µM): 91%
residual activity (TLK1 (human); compound 1.0 µM): 95%
residual activity (TLK1 (human); compound 10.0 µM): 106%
residual activity (MAP4K5 (human); compound 1.0 µM): 109%
residual activity (MAP4K5 (human); compound 10.0 µM): 115%
residual activity (MAPK11 (human); compound 1.0 µM): 96%
residual activity (MAPK11 (human); compound 10.0 µM): 106%
residual activity ([1]; compound 1.0 µM): 106%
residual activity ([1]; compound 10.0 µM): 102%
residual activity (TESK1 (human); compound 1.0 µM): 77%
residual activity (TESK1 (human); compound 10.0 µM): 77%
residual activity (MAPK7 (human); compound 1.0 µM): 98%
residual activity (MAPK7 (human); compound 10.0 µM): 107%
residual activity ([2]; compound 1.0 µM): 91%
residual activity ([2]; compound 10.0 µM): 112%
residual activity ([3]; compound 1.0 µM): 105%
residual activity ([3]; compound 10.0 µM): 115%
residual activity (STK16 (human); compound 1.0 µM): 98%
residual activity (STK16 (human); compound 10.0 µM): 100%
residual activity (IRAK1 (human); compound 1.0 µM): 96%
residual activity (IRAK1 (human); compound 10.0 µM): 101%
residual activity (STK24 (human); compound 1.0 µM): 82%
residual activity (STK24 (human); compound 10.0 µM): 84%
residual activity (MAP4K3 (human); compound 1.0 µM): 100%
residual activity (MAP4K3 (human); compound 10.0 µM): 110%
residual activity (SIK3 (human); compound 1.0 µM): 91%
residual activity (SIK3 (human); compound 10.0 µM): 94%
residual activity (CSNK1G2 (human); compound 1.0 µM): 99%
residual activity (CSNK1G2 (human); compound 10.0 µM): 90%
residual activity (PTK6 (human); compound 10.0 µM): 114%
residual activity (ZAP70 (human); compound 1.0 µM): 110%
residual activity (ZAP70 (human); compound 10.0 µM): 116%
Structure (SMILES): Nc1cccc2c1CN(C1CCC(=O)NC1=O)C2=O (stereo not drawn)

residual activity (STK33 (human); compound 0.1 µM): 105%
residual activity (PRKCG (human); compound 0.1 µM): 103%
residual activity (PAK6 (human); compound 0.1 µM): 90%
residual activity (ULK2 (human); compound 0.1 µM): 109%
residual activity (WNK1 (human); compound 0.1 µM): 99%
residual activity (TSSK1B (human); compound 0.1 µM): 115%
residual activity (DDR2 (human); compound 0.1 µM): 20%
residual activity (TTBK2 (human); compound 0.1 µM): 94%
residual activity (PDGFRA (human); compound 0.1 µM): 101%
residual activity (EIF2AK3 (human); compound 0.1 µM): 111%
residual activity (ULK1 (human); compound 0.1 µM): 99%
residual activity (ABL1 (human); compound 0.1 µM): 26%
residual activity (SIK2 (human); compound 0.1 µM): 51%
residual activity (TLK1 (human); compound 0.1 µM): 107%
residual activity (MAP4K5 (human); compound 0.1 µM): 70%
residual activity (MAPK11 (human); compound 0.1 µM): 85%
residual activity ([1]; compound 0.1 µM): 102%
residual activity (TESK1 (human); compound 0.1 µM): 94%
residual activity (MAPK7 (human); compound 0.1 µM): 90%
residual activity ([2]; compound 0.1 µM): 102%
residual activity ([3]; compound 0.1 µM): 90%
residual activity (STK16 (human); compound 0.1 µM): 108%
residual activity (IRAK1 (human); compound 0.1 µM): 84%
residual activity (STK24 (human); compound 0.1 µM): 102%
residual activity (MAP4K3 (human); compound 0.1 µM): 85%
residual activity (SIK3 (human); compound 0.1 µM): 92%
residual activity (CSNK1G2 (human); compound 0.1 µM): 107%
residual activity (PTK6 (human); compound 0.1 µM): 31%
residual activity (ZAP70 (human); compound 0.1 µM): 122%
residual activity (CDK9 CCNT1 (human)): 100%
Structure (SMILES): CN1CCN(CCOc2cc(OC3CCOCC3)c3c(Nc4c(Cl)ccc5c4OCO5)ncnc3c2)CC1
